{
  "source": "patent US20210128639A1",
  "about": "“CELL PREPARATION FOR TREATING BRAIN TUMOR” (priority 2017, published 2021)",
  "assay_type_in_all_cases": "cell-based, human",
  "key": {"[1]": {"test_system": "Tet-induction iPS cells expressing HSVtk", "assay": "Cell death of Tet-induction iPS cells expressing HSVtk on adding Dox and GCV to the medium", "conditions": "1 μg/ml doxycycline (Dox) and 1 μg/ml GCV added to the medium", "text": "Human iPS cells were infected with the CSIV-HSV1tk-TRE-EF-KT lentiviral vector at an MOI of 2.5 to 10 and cultured. The clones were then sorted with the cell sorter to obtain an iPS cell line expressing hKO1 steadily and highly."}, "[2]": {"test_system": "Tet-induction NS/PCs expressing HSVtk", "assay": "Cell death of Tet-induction NS/PCs expressing HSVtk on adding Dox and GCV to the medium", "conditions": "1 μg/ml doxycycline (Dox) and 1 μg/ml GCV added to the medium", "text": "Tet-induced iPS cells expressing HSVtk were differentiation-induced into NS/PCs to obtain secondary and tertiary Tet-induced NS/PCs expressing HSVtk."}, "NS/PCs expressing HSVtk": {"test_system": "NS/PCs expressing HSVtk", "assay": "Cell death of NS/PCs expressing HSVtk on adding ganciclovir to the medium", "conditions": "1 μg/ml ganciclovir (GCV) added to the medium", "text": "Secondary or tertiary NS/PCs differentiation-induced from human iPS cells were collected with the centrifuge and disassembled into single cells using TrypLE Select. The single cells were suspended in NS medium, inoculated into a low adhesive flask at a concentration of 1×10^5 cells/ml, infected with the CSIV-EF-HSV1tk-IRES2-hKO1 lentiviral vector at an MOI (multiplicity of infection) of 0.5 to 1, and cultured for 7 days with the medium replaced every 3 to 4 days. The obtained NS/PCs were infected with the CSIV-EF-HSV1tk-IRES2-hKO1 lentiviral vector at an MOI of 0.5 to 1 in the same way again to prepare therapeutic stem cells (TSCs), that is, NS/PCs expressing HSVtk."}},
  "data": [
    {"smiles": "Nc1nc(O)c2ncn(COC(CO)CO)c2n1", "note": "[GCV, ganciclovir]", "values": [
      {"measurement": "cell death of Tet-induction iPS cells expressing HSVtk", "setting": "[1]", "result": "cell death of Tet-induction iPS cells expressing HSVtk was induced"},
      {"measurement": "cell death of Tet-induction NS/PCs expressing HSVtk", "setting": "[2]", "result": "cell death of these Tet-induction NS/PCs expressing HSVtk was also induced"},
      {"measurement": "cell death of NS/PCs expressing HSVtk", "setting": "NS/PCs expressing HSVtk", "result": "cell death of the NS/PCs expressing HSVtk was induced"}
    ]}
  ]
}
